Test results taken from patent US20130225671A1, “Methods of Treating Seizure Disorders” (Massachusetts Institute of Technology, priority 2010, published 2013).
pIC50: −log10 of the molar value. Entries after “also recorded” stand apart in the source; their conditions may differ. Marks after values point to notes of the source that are not given here.

What was measured:
IL-1β = conditions: human whole blood, TPA-induced; cited from earlier work
~200 other kinases = ~200 other kinases at 1 μM; cited from earlier work
[1] = test system: Rat carrageenan paw edema; conditions: PO, once; cited from earlier work
[2] = test system: rat adjuvant-induced arthritis; conditions: PO, QD×7; cited from earlier work
[3] = test system: Rat Collagen-Induced Arthritis; conditions: PO, QD×7; cited from earlier work
[4] = test system: Cytochrome p450 (5 major isoforms); conditions: read-out: Cytochrome p450 Inhibition-IC50; cited from earlier work
Malme-3M pERK = conditions: Malme-3M cells; cited from earlier work
TNF-α = conditions: human whole blood, TPA-induced; cited from earlier work
MEK = conditions: read-out: MEK Enzyme IC50; cited from earlier work
IL-6 = conditions: human whole blood, TPA-induced; cited from earlier work
25 receptors = conditions: cited from earlier work
Fmr1 KO mouse = test: Audiogenic seizures (AGS) in Fmr1 KO and WT mice;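 as to all read-outs here: male WT and Fmr1 KO littermates aged P17-25 given a 2 min seizure-provoking stimulus, scored blind to genotype for wild running, clonic and tonic seizures and death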; conditions: for AGS incidence: 1 h, vehicle KO about 74%; for incidence of AGS: Example 1, vehicle KO 73%; for incidence of AGS / Clonic seizure incidence / Death incidence / Tonic seizure incidence / WR (wild running) incidence: i.p. 100 mg/kg SL 327 or 30 mg/kg Formula I; for Clonic seizure incidence / Death incidence / Tonic seizure incidence / WR (wild running) incidence: 1 h before stimulus
Method: One hour later, mice were exposed to a seizure-inducing stimulus for 2 minutes, and scored for four stages of AGS: wild running (WR; pronounced, undirected running and thrashing), clonic seizure (violent spasms accompanied by loss of balance), tonic seizure (postural rigidity in limbs), and death [35, 37, 39]. All animals were injected and scored blind to genotype.
AGS: Experiments were performed using male WT and Fmr1 KO littermates (P17-25) as described herein. […] Immediately prior to testing, mice were transferred to a quiet (about <60 dB ambient sound) room for 1 hour. Mice were then transferred to a transparent plastic test chamber and, after 1 minute of habituation, exposed to a 130 dB stimulus (recorded sampling of a modified personal alarm, RADIOSHACK model 49-1010) for about 2 minutes. Each testing session contained mice from both genotype and treatment groups. For each group, incidence of the following stages of AGS was calculated: wild running (WR; pronounced, undirected running and thRashing), clonic seizure (violent spasms accompanied by loss of balance), tonic seizure (postural rigidity in limbs), and death. All aspects of the experiments were performed blind to genotype.
For each mouse, four stages of increasing AGS severity were scored: wild running, clonic seizure, tonic seizure, or death[16].

Ras = Ras activation assay (Ras-GTP pull-down) in hippocampal slices; assay type: cell-based, mouse
Method: Ras activation assay: Slices (4-6 per animal) were prepared exactly as for metabolic labeling, and Ras-GTP isolated using the Active Ras Pull-Down and Detection kit (PIERCE) according to manufacturer's instructions.
Active (GTP-bound) Ras was isolated from homogenized slices using a GST-pull down assay, and compared to total Ras.

ERK1/2 = ERK1/2 activation (phosphorylation) in hippocampal slices, immunoblotting; assay type: cell-based, mouse; conditions: for ERK1/2 activation (phosphorylation; WT veh = 100%): 1 hour
[5] = test system: protein synthesis in WT and Fmr1 KO hippocampal slices; test: Protein synthesis in hippocampal slices (35S-Met/Cys metabolic labeling); assay type: cell-based, mouse
Method: Dorsal hippocampal slices were prepared from juvenile (postnatal day 25-32) WT and Fmr1 KO mice using the same metabolic labeling procedure described in [35]. Briefly, 500 μm slices were recovered in carbogenating, 32.5° C. ACSF (in mM: NaCl: 124, KCl: 3, NaH2PO4: 1.25, NaHCO3: 26, dextrose: 10, MgCl2: 1, CaCl2: 2, saturated with 95% O2 and 5% CO2), pre-incubated in actinomycin D (ActD, 25 μM) for 30 min to prevent transcription, and protein synthesis measured over 30 minutes via incorporation of a ^35S-labeled methionine/cysteine mix (^35S-Met/Cys).
Group I mGluR activate several signal pathways.
Mice: Fmr1 KO (Jackson Labs) and WT littermates, bred on the C57BL6 or FVB background strains, were group housed and maintained in a 12:12 h light:dark cycle. An In vitro hippocampal slice assay was used herein to recapitulate the exaggerated protein synthesis phenotype seen in the Fmr1 KO[6].
Metabolic labeling: Experiments were performed on male WT and Fmr1 KO mice (postnatal day 25-32), blind to genotype, as described herein. Briefly, 500 μm slices were recovered for 4 h in 32.5° C. […] After labeling, slices were homogenized, and labeled proteins isolated by TCA precipitation. Samples were read with a scintillation counter and also subjected to a protein concentration assay (BIO-RAD). Final data were expressed as counts per minute (CPM) per μg protein, normalized to the ^35S-Met/Cys ACSF used for incubation, and the average incorporation of all samples analyzed in that experiment.

[6] = Fmr1 KO mice, C57BL6, 30 mg/kg Formula I acid i.p.
[7] = Fmr1 KO hippocampal slices, 10 μM Formula I
[8] = Fmr1 KO hippocampal slices, 50 μM Formula I
[9] = WT hippocampal slices, 10 μM Formula I
[10] = WT hippocampal slices, 50 μM Formula I
[11] = Fmr1 KO hippocampal slices, 100 μM Formula I in lactone form (Example 1)
[12] = Fmr1 KO hippocampal slices, 100 μM Formula I in lactone form (Example 1), listed as LOVASTATIN
[13] = WT hippocampal slices, 5 μM U0126

Compound: Cn1cnc2c(F)c(Nc3ccc(Br)cc3F)c(C(=O)NOCCO)cc21 [ARRY-162]
- pIC50 (IL-1β): 7.68
- Kinase selectivity screen (~200 other kinases): no activity
- Rat carrageenan paw edema ED50 [1]: ~7 mg/kg
- rat adjuvant-induced arthritis ED50 [2]: 10 mg/kg
- Rat Collagen-Induced Arthritis ED50 [3]: 3 mg/kg
- pIC50 [4]: < 4.60
- pIC50 (Malme-3M pERK): 7.96
- pIC50 (TNF-α): 7.64
- pIC50 (MEK): 7.92
- pIC50 (IL-6): 7.68
- receptor screen (25 receptors): clean

Compound: CCC(C)C(=O)OC1CC(C)C=C2C=CC(C)C(CCC(O)CC(O)CC(=O)[O-])C21.[Na+] (stereo not drawn) [Formula I acid]
- AGS severity (distribution of AGS scores) (Fmr1 KO mouse; [6]): attenuates AGS severity
- AGS incidence (Fmr1 KO mouse; [6]): significantly reduces AGS incidence

Compound: CC[C@H](C)C(=O)O[C@H]1C[C@@H](C)C=C2C=C[C@H](C)[C@H](CC[C@@H]3C[C@@H](O)CC(=O)O3)[C@H]21 [Formula I, (1S,3R,7S,8S,8aR)-8-{2-[(2R,4R)-4-hydroxy-6-oxooxan-2-yl]ethyl}-3,7-dimethyl-1,2,3,7,8,8a-hexahydronaphthalen-1-yl-(2S)-2-methylbutanoate]
- active (GTP-bound) Ras compared to total Ras (WT veh = 100%) (Ras; [7]): 89±8%
- active (GTP-bound) Ras compared to total Ras (WT veh = 100%) (Ras; [8]): 61±9%
- active (GTP-bound) Ras compared to total Ras (WT veh = 100%) (Ras; [9]): 87±14%
- active (GTP-bound) Ras compared to total Ras (WT veh = 100%) (Ras; [10]): 61±12%
- Ras activation in hippocampal slices (in words) (Ras; hippocampal slices, Formula I acid form, FIGS. 2D and 2E): inhibits Ras activation
- ERK1/2 activation (phosphorylation; WT veh = 100%) (ERK1/2; [7]): 90±6%
- ERK1/2 activation (phosphorylation; WT veh = 100%) (ERK1/2; [8]): 78±5%
- ERK1/2 activation (WT vehicle = 100%) (ERK1/2; [11]): 181±6%
- ERK1/2 activation (WT vehicle = 100%) (ERK1/2; [12]): reduce ERK1/2 activation
- ERK1/2 activation (phosphorylation; WT veh = 100%) (ERK1/2; [9]): 94±8%
- ERK1/2 activation (phosphorylation; WT veh = 100%) (ERK1/2; [10]): 84±5%
- ERK1/2 activation (WT vehicle = 100%) (ERK1/2; WT hippocampal slices, 100 μM Formula I in lactone form (Example 1)): 187±6%
- ERK1/2 in hippocampal slices (in words) (ERK1/2; hippocampal slices, Formula I acid form, FIGS. 2F and 2G): downregulates ERK1/2
- protein synthesis (WT veh = 100%) ([5]; Fmr1 KO hippocampal slices, 10 μM Formula I (acid form, Example 2)): 115±7%
- protein synthesis (WT vehicle = 100%) [5, 11]: 104±2%
- protein synthesis (WT vehicle = 100%) [5, 12]: can correct protein synthesis
- protein synthesis (WT veh = 100%) ([5]; WT hippocampal slices, 10 μM Formula I (acid form, Example 2)): 103±4%
- protein synthesis (WT veh = 100%) ([5]; WT hippocampal slices, 50 μM Formula I (acid form, Example 2)): 88±5%
- AGS severity (distribution of AGS scores) (Fmr1 KO mouse; [6]): significantly lessens the severity of seizures
- AGS incidence (Fmr1 KO mouse; [6]): about 28%
- AGS severity (distribution of AGS scores) (Fmr1 KO mouse; Fmr1 KO mice, C57BL6, 30 mg/kg Formula I lactone i.p.): significantly reduces AGS severity
- AGS severity (distribution of AGS scores) (Fmr1 KO mouse; Fmr1 KO mice, C57BL6, 100 mg/kg Formula I acid i.p.): attenuates AGS severity
- AGS severity (distribution of AGS scores) (Fmr1 KO mouse; Fmr1 KO mice, C57BL6, oral, 48 h feeding of 0.1% Formula I chow): significantly reduces AGS severity
- incidence of AGS (Fmr1 KO mouse; Fmr1 KO mice): 21%
- AGS severity (distribution of AGS scores) (Fmr1 KO mouse; Fmr1 KO mice, FVB, 30 mg/kg Formula I i.p., 30 mg/kg): similarly unaffected; also recorded: does not significantly reduce AGS severity
- AGS severity (distribution of AGS scores) (Fmr1 KO mouse; Fmr1 KO mice, FVB, 100 mg/kg Formula I i.p., 100 mg/kg): significantly reduces AGS severity
- Clonic seizure incidence (Fmr1 KO mouse; Fmr1 KO mice): 12%*
- Death incidence (Fmr1 KO mouse; Fmr1 KO mice): 8%
- Tonic seizure incidence (Fmr1 KO mouse; Fmr1 KO mice): 6%*
- WR (wild running) incidence (Fmr1 KO mouse; Fmr1 KO mice): 21%*
- Clonic seizure incidence (Fmr1 KO mouse; WT mice): 8%*
- Death incidence (Fmr1 KO mouse; WT mice): 8%
- Tonic seizure incidence (Fmr1 KO mouse; WT mice): 8%
- WR (wild running) incidence (Fmr1 KO mouse; WT mice): 13%**

Compound: N#CC(=C(N)Sc1ccccc1N)C(C#N)=C(N)Sc1ccccc1N [Formula U0126, 1,4-diamino-2,3-dicyano-1,4-bis[2-aminophenylthio]butadiene]
- ERK1/2 activation (WT vehicle = 100%) (ERK1/2; [13]): 15±3%
- protein synthesis (WT vehicle = 100%) [5, 13]: 94±6%

Compound: Cc1cccc(C#Cc2ccccc2)n1 [MPEP]
- protein synthesis (WT vehicle = 100%) ([5]; Fmr1 KO hippocampal slices, 50 μM MPEP, 5 minutes): 95±2%
- protein synthesis (WT vehicle = 100%) ([5]; WT hippocampal slices, 50 μM MPEP, 5 minutes): 104±2%

Compound: N#C/C(=C(\N)Sc1ccc(N)cc1)c1ccccc1C(F)(F)F [SL 327, alpha-[amino[(4-aminophenyl)thio]methylene]-2-(trifluoromethyl)benzeneacetonitrile]
- incidence of AGS (Fmr1 KO mouse; Fmr1 KO mice): 0%
- Clonic seizure incidence (Fmr1 KO mouse; Fmr1 KO mice): 0%*
- Death incidence (Fmr1 KO mouse; Fmr1 KO mice): 0%
- Tonic seizure incidence (Fmr1 KO mouse; Fmr1 KO mice): 0%*
- WR (wild running) incidence (Fmr1 KO mouse; Fmr1 KO mice): 0%*
- Clonic seizure incidence (Fmr1 KO mouse; WT mice): 0%*
- Death incidence (Fmr1 KO mouse; WT mice): 0%
- Tonic seizure incidence (Fmr1 KO mouse; WT mice): 0%
- WR (wild running) incidence (Fmr1 KO mouse; WT mice): 0%*
